Patent publication US20230135100A1, “PROCESS OF PREPARING A PEPTIDE EPOXYKETONE IMMUNOPROTEASOME INHIBITOR, AND PRECURSORS THEREOF” (KEZAR LIFE SCIENCES, priority 2016, published 2023)
“And” between values parts separate entries of the source, which are not always exact repeats. Equal entries are not always repeated. Structures can show the parent of a compound that is named as a salt. Where two headings read alike, the source gives them in different places.

Conditions: 25° C., relative humidity 40%

| SMILES | % Purity at Indicated Time (days) (90 days) | % Decomposition (1 day) | % Purity at Indicated Time (days) (1 day) |
| --- | --- | --- | --- |
| C[C@]1(C(=O)[C@@H](N)CC2=CCCC2)CO1 [Tosylate, (S)-3-(cyclopent-1-en-1-yl)-1-((R)-2-methyloxiran-2-yl)-1-oxopropan-2-aminium salt] | 96.0 (90) % and 85.0 (90) % |  |  |
| C[C@]1(C(=O)[C@@H](N)CC2=CCCC2)CO1 [Trifluoroacetate, (S)-3-(cyclopent-1-en-1-yl)-1-((R)-2-methyloxiran-2-yl)-1-oxopropan-2-aminium salt] |  | 5.7% and 8.8% | 79.6 (1) % and 86.0 (1) % |
